Results from US12583868B2, “JAK inhibitors and methods for synthesizing and using thereof” (GALDERMA HOLDING SA, priority 2020, dated 2026).

What was measured:
p-STAT3Y705 in skin = experiment: In vivo pharmacodynamy model: IL-6 induced Phospho-STAT3, topical; design: species or system BALB/c ByJ Rj mice; PD/IL6 mouse top @1 mM % vs Tofa: unit not given here; settings: topical 1 mM, PG/EtOH 3/7
[1] = In vivo pharmacokinetic analysis in minipig (iv); design: species or system male Göttingen minipigs; settings: iv 1 mg/kg
Method: Three male Göttingen minipigs. Compound was administered intravenously to fed animals at a target dose of 1 mg/kg, dose volume 1 mL/kg, in DMSO: hydroxypropyl-p-cyclodextrin 20% in phosphate buffer 60 mM pH 7 (5:95). Blood samples were collected at various time points. Blood samples were then assayed using a method based upon protein precipitation with acetonitrile followed by LC/MS/MS analysis. Non-compartmental methods were used for pharmacokinetic analysis of blood concentration versus time data.

[2] = Protein binding analysis (RED), minipig plasma; assay type: in vitro ADME; settings: male, Göttingen, pH 7.4, read-out: minipig FU
Method: The protein binding was assessed in plasma of Human, male balb-c mice, male Wistar Han rat, male Göttingen minipig by rapid equilibrium dialysis (RED) devices. After the plasma and buffer phosphate 50 mM pH7.4 were equilibrated at 37° C., the compound was added to plasma to reach a final concentration of 5 μM. An aliquot of plasma was withdrawn immediately. Equilibration under mild agitation was continued for 4 h. The plasma and buffer were sampled and samples were quenched with 4 volumes of acetonitrile and centrifuged. Supernatant was quantified in HPLC/MS/MS to calculate the recovery and the percentage of compound dissolved in the buffer (unbound) and bound to plasma proteins.

CYP2D6 = biological target: T1, CYP2D6 (Homo sapiens, UniProt P10635); experiment: CYP2D6 inhibition in human liver microsomes; assay type: in vitro ADME; settings: dextromethorphan, CRL data
T1 construct: Human pooled liver microsomes of mixed gender (mainly Caucasian); from tissue; host or cells: pooled human liver microsomes
T1 sequence (P10635 whole entry): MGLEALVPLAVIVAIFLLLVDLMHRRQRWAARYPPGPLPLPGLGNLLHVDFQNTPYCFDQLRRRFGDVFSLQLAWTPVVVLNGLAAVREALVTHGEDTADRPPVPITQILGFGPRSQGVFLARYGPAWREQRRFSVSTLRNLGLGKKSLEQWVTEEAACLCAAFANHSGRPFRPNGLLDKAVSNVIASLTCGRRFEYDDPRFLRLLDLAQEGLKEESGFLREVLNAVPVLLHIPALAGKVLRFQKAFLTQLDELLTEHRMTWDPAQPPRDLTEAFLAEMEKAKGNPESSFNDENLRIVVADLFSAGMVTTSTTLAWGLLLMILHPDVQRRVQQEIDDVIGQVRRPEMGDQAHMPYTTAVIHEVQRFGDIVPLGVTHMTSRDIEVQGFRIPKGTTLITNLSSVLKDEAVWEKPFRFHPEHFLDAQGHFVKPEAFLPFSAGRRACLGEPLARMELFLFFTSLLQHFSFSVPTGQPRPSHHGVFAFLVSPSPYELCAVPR
Method: After 5 min at 37° C. incubations were started with NADPH and prolonged for 10 min. The test compound was tested up to 30 μM keeping the final concentration of organic solvent was below 0.5%. The final concentration of microsomes was 0.1 mg/ml to ensure linearity during the time of the incubation. The reaction was quenched by adding 3 volume of acetonitrile. After centrifugation the supernatant was analyzed by HPLC/MS/MS for the formation of des-methyldextromethorphane selectively produced by CYP2D6 and 1′hydroxymidazolam or 6p-hydroxytestosterone, selectively produced by CYP3A. IC50 was calculated with Graphpad Prism v.7 comparing the amount of metabolite produced in presence of the test compound with that produced in absence of test item.

pKa = assay type: physicochemical
JAK3 = biological target: T2, JAK3 (Homo sapiens, UniProt P52333); experiment: In vitro enzyme assay (Cisbio kinase assay), JAK3; assay type: biochemical; settings: ATP 300 μM; read-out: Enzymatic assay: JAK3
T2 construct: purchased Life Technologies PV3855
T2 sequence (P52333 1-1124): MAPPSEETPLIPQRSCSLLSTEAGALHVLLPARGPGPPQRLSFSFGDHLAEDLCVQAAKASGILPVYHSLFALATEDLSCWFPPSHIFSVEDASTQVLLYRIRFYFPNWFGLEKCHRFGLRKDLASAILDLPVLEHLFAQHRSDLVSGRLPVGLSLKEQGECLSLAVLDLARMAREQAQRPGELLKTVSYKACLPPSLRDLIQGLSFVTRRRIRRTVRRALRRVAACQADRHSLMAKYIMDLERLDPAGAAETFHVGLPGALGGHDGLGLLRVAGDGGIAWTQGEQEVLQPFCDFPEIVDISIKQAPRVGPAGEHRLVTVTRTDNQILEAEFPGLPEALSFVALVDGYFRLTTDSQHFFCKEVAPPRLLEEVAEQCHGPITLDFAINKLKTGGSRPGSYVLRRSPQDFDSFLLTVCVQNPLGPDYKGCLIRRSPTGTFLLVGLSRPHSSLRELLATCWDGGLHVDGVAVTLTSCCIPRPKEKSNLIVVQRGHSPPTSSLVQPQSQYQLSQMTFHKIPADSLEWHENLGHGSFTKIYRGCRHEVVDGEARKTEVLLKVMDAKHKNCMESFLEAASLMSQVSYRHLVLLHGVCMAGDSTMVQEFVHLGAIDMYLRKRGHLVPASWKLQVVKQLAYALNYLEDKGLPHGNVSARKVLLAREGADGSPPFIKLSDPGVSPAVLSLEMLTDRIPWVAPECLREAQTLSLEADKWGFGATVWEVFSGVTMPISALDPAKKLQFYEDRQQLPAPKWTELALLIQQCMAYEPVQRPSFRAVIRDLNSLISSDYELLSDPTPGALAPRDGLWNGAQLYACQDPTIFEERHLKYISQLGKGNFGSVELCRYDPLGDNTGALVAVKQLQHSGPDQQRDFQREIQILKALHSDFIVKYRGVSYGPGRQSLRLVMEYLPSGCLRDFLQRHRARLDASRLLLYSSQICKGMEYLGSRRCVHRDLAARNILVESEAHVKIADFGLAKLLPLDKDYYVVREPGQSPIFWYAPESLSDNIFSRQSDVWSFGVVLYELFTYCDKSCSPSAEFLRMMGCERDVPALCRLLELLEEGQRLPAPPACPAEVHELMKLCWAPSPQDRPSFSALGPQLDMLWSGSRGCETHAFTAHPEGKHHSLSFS

[3] = Intrinsic clearance in hepatocytes, rat; assay type: in vitro ADME, male Wistar Han rats; settings: 2.5 μM
Method: The intrinsic clearance was assessed in cryopreserved Hepatocytes obtained by Human livers donors of mix gender pooled together, male balb-c mouse, male Wistar Han rats and male Göttingen minipig, by looking at the parent compound disappearance. The incubations were performed using a final concentration of viable cells of 1 million/ml (viability above 70%) and test item of 2.5 μM. Incubations were followed up to 2 h. Aliquotes were withdrawn at different time points and reaction quenched with acetonitrile. After centrifugation the supernatant was analyzed by HPLC/MS to quantify the remaining amount of parent in comparison with time 0. The clearance was calculated by fitting the log of the percentage remaining with Graphpad Prism ver.7.

Tyk2 enzyme = biological target: T3, Tyk2 enzyme (Homo sapiens, UniProt P29597); experiment: In vitro enzyme assay (Cisbio kinase assay), Tyk2; assay type: biochemical; settings: ATP 300 μM; read-out: Enzymatic assay: Tyk2
T3 construct: purchased Life Technologies PR8440C
T3 sequence (P29597 whole entry): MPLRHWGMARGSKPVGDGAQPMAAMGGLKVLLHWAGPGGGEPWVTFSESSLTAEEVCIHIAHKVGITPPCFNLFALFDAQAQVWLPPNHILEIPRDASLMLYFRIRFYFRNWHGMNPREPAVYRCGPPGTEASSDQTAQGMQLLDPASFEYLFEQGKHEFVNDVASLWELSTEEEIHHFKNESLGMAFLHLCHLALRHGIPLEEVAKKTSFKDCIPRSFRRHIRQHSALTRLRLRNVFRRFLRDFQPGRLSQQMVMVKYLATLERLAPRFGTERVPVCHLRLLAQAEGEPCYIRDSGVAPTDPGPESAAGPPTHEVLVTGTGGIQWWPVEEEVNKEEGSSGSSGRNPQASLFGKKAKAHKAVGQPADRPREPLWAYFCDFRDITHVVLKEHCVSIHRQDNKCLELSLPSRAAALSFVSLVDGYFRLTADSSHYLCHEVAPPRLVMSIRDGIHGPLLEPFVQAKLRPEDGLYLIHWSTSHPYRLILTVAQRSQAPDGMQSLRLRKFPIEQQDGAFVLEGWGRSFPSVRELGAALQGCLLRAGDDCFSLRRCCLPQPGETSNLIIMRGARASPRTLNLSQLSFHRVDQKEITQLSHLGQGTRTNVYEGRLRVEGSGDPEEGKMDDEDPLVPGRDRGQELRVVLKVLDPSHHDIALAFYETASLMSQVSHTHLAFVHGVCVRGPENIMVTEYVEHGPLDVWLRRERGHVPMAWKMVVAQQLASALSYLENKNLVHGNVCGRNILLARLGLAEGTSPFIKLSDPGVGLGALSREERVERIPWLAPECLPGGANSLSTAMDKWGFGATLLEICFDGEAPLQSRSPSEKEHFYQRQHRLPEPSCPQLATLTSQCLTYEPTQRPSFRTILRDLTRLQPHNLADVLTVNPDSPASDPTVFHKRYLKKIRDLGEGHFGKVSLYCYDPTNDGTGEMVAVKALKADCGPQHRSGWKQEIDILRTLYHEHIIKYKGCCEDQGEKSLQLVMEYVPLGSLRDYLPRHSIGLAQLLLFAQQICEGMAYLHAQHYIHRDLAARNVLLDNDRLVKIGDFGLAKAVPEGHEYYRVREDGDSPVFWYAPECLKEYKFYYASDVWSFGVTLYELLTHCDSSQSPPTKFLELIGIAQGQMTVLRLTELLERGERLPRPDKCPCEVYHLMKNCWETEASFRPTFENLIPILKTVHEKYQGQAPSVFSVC

44 targets = assay type: binding
Method: An in vitro pharmacology assay was conducted to assess the capability of the compounds to interact with different pharmacological targets when tested at 10 μM in different binding and enzyme/uptake assays. The included targets are indicative of potential effects in major organs and drug-drug interactions.
Compound binding was calculated as a % inhibition of the binding of a radioactively labelled ligand specific for each target. […] […].

CYP3A4 = biological target: T4, CYP3A4 (Homo sapiens, UniProt P08684); experiment: CYP3A inhibition in human liver microsomes; assay type: in vitro ADME; settings: testosterone, CRL data, read-out: IC50 CYP3A4 testo.
T4 construct: Human pooled liver microsomes of mixed gender (mainly Caucasian); from tissue; host or cells: pooled human liver microsomes
T4 sequence (P08684 2-503): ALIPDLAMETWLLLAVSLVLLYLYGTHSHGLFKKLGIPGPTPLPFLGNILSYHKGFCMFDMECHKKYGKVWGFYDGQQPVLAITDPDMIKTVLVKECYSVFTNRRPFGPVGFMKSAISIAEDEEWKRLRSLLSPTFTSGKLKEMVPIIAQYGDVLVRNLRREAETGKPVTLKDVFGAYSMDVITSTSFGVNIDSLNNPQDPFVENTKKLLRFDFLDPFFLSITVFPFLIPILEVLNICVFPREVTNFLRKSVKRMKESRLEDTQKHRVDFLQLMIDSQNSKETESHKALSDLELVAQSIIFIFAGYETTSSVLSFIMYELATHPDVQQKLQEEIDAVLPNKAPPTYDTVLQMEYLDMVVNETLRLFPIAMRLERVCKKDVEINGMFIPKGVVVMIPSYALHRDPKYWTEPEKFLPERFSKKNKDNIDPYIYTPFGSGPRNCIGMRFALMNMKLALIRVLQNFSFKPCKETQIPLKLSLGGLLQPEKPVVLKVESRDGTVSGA

In the case of `O=S(=O)(N[C@H]1C[C@@H](N2CCOc3cnc4[nH]ccc4c32)C1)C1CN(C2CC2)C1` [Compound E, 1-Cyclopropyl-N-((cis)-3-(2,3-dihydropyrrolo[3′,2′:5,6]pyrido[3,4-b][1,4]oxazin-1(7H)-yl)cyclobutyl)azetidine-3-sulfonamide], the “PD/IL6 mouse top @1 mM % inh vs vehicle” value (p-STAT3Y705 in skin) is reported as 63%, the “PD/IL6 mouse top @1 mM % vs Tofa” value (p-STAT3Y705 in skin) is reported as 0.97 and the “iv PK minipig: ER” value [1] is reported as 171%. It also gave a clearance ([1]; male, Göttingen, whole blood, read-out: iv PK minipig: Cl) of 48 mL/min/kg, a fraction unbound at 4 h, 5 μM [2] of 0.32 and an IC50 (CYP2D6) of 20 µM. The pKa (pKa) was 6.1, the IC50 (JAK3) was over 10 µM and the “Intr. Clear. rheps” value [3] was 40 microL/min/10 6 cells. For the same molecule, the IC50 (Tyk2 enzyme) was 3.45 µM, the “Safety panel (Cerep): 44 targets % inh @10 microM Nb of targets > 50% inh” value (44 targets) was 2/44 and the “Safety panel (Cerep): targets > 50% inh” value (44 targets; 10 μM) was “(H2 (antago)-alpha2A (antago))”. The IC50 (CYP3A4) was 5 µM.
